# Source: patent US9150575B2, “Piperidinylpyrazolopyridine derivative” (Daiichi Sankyo Company, Limited, priority 2012, dated 2015)
# Biological target: T1, LCAT (Homo sapiens, UniProt P04180)
# T1 construct: The obtained fraction was dialyzed against phosphate-buffered saline (pH 7.4) and used as an enzyme source and an acceptor for LCAT; from tissue; host or cells: HDL3 fraction (1.125<specific gravity<1.210 g/mL) of plasma from a healthy person
# T1 sequence (P04180 25-440): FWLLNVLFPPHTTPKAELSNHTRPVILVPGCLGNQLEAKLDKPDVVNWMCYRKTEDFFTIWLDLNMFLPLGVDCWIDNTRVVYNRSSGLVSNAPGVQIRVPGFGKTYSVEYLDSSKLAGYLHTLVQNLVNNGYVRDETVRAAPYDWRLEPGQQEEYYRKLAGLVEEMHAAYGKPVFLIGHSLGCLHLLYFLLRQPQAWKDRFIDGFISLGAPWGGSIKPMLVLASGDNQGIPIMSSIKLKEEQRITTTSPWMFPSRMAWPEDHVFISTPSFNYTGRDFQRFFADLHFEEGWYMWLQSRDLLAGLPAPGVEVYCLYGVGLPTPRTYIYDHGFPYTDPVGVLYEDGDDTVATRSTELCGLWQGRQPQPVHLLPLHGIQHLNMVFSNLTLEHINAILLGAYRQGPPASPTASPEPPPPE
# Assay: LCAT Activity Measurement (In Vitro)
# Type: biochemical
# Conditions: EC50 of LCAT activation; HDL3 fraction from plasma of a healthy person as enzyme source and acceptor; [14C]cholesterol; 37° C., approximately 16 hours
# Experimental: A fraction composed of HDL3 (1.125<specific gravity<1.210 g/mL) was obtained from the plasma of a healthy person by density gradient centrifugation. The obtained fraction was dialyzed against phosphate-buffered saline (pH 7.4) and used as an enzyme source and an acceptor for LCAT. Each test drug was prepared by dissolution in dimethyl sulfoxide. [14C]Cholesterol containing DTNB (Ellman's reagent, final concentration: 0.5 mM), mercaptoethanol (final concentration: 12.5 mM), and 0.6% bovine serum albumin was added to phosphate-buffered saline (pH 7.4) containing 1 mg/mL HDL3, and the test drug was further added thereto at varying concentrations to adjust the whole amount to 80 μL. This mixture was incubated at 37° C. for approximately 16 hours. Then, a mixed solution of hexane and isopropanol (mixing ratio=3:2) was added thereto to stop the reaction. After stirring, the hexane layer was collected, and this layer was evaporated to dryness. A chloroform solution (concentration: 10 mg/mL) was added thereto, and the mixture was spotted onto a thin-layer silica gel plate and developed using a mixed solution of hexane, diethyl ether, and ethyl acetate (mixing ratio=85:15:2). The radioactivity of a portion corresponding to cholesterol oleate was measured using an imaging analyzer BAS-2500 (manufactured by Fujifilm Corp.). A sample non-supplemented with the test drug was similarly treated and assayed. The EC50 value of LCAT activation was calculated according to the expression given below relative to LCAT activity in the sample non-supplemented with the test drug.
# wherein X represents the logarithm of the concentration of the test drug;
# Y represents the responsiveness (LCAT activity) of the test drug;
# Top represents the maximum value (maximum plateau);
# Bottom represents the minimum value (minimum plateau); and
# EC50 represents the 50% effective concentration.
row,Structure (SMILES),EC50 [nM]
1,"O=C1CC(O)(C(F)(F)F)c2c(C3CCN(c4nnc(C(F)(F)F)s4)CC3)n[nH]c2N1 (stereo not drawn) [Example 47, 4-Hydroxy-4-(trifluoromethyl)-3-{1-[5-(trifluoromethyl)-1,3,4-thiadiazol-2-yl]piperidin-4-yl}-1,4,5,7-tetrahydro-6H-pyrazolo[3,4-b]pyridin-6-one]",96
2,"O=C1CC(O)(C(F)(F)F)c2c(C3CCN(c4ccc(OC(F)F)cn4)CC3)n[nH]c2N1 (stereo not drawn) [Example 51, 3-{1-[5-(Difluoromethoxy)pyridin-2-yl]piperidin-4-yl}-4-hydroxy-4-(trifluoromethyl)-1,4,5,7-tetrahydro-6H-pyrazolo[3,4-b]pyridin-6-one]",81
3,"CC(C)Oc1ccc(N2CCC(c3n[nH]c4c3C(O)(C(F)(F)F)CC(=O)N4)CC2)nc1 (stereo not drawn) [Example 52, 4-Hydroxy-3-{1-[5-(propan-2-yloxy)pyridin-2-yl]piperidin-4-yl}-4-(trifluoromethyl)-1,4,5,7-tetrahydro-6H-pyrazolo[3,4-b]pyridin-6-one]",67
4,"CC(C)Oc1ccc(N2CCC(c3n[nH]c4c3C(O)(C(F)(F)F)CC(=O)N4)CC2)cn1 (stereo not drawn) [Example 57, 4-Hydroxy-3-{1-[6-(propan-2-yloxy)pyridin-3-yl]piperidin-4-yl}-4-(trifluoromethyl)-1,4,5,7-tetrahydro-6H-pyrazolo[3,4-b]pyridin-6-one]",100
5,"O=C1CC(O)(C(F)(F)F)c2c(C3CCN(c4ccc(OC5CCC5)nc4)CC3)n[nH]c2N1 (stereo not drawn) [Example 61, 3-{1-[6-(Cyclobutoxy)pyridin-3-yl]piperidin-4-yl}-4-hydroxy-4-(trifluoromethyl)-1,4,5,7-tetrahydro-6H-pyrazolo[3,4-b]pyridin-6-one]",100
6,"O=C1CC(O)(C(F)(F)F)c2c(C3CCN(c4cnc(OC(F)F)c(OC(F)F)c4)CC3)n[nH]c2N1 (stereo not drawn) [Example 63, 3-{1-[5,6-bis(Difluoromethoxy)pyridin-3-yl]piperidin-4-yl}-4-hydroxy-4-(trifluoromethyl)-1,4,5,7-tetrahydro-6H-pyrazolo[3,4-b]pyridin-6-one]",31
7,"CC(C)c1ccc(N2CCC(c3n[nH]c4c3C(O)(C(F)(F)F)CC(=O)N4)CC2)nc1 (stereo not drawn) [Example 64, 4-Hydroxy-3-{1-[5-isopropylpyridin-2-yl]piperidin-4-yl]-4-(trifluoromethyl)-1,4,5,7-tetrahydro-6H-pyrazolo[3,4-b]pyridin-6-one]",56
8,"O=C1CC(O)(C(F)(F)F)c2c(C3CCN(c4cnc(C5CC5)nc4)CC3)n[nH]c2N1 (stereo not drawn) [Example 66, 3-[1-(2-Cyclopropylpyrimidin-5-yl)piperidin-4-yl]-4-hydroxy-4-(trifluoromethyl)-1,4,5,7-tetrahydro-6H-pyrazolo[3,4-b]pyridin-6-one]",68
9,"CN(C)c1ncc(N2CCC(c3n[nH]c4c3C(O)(C(F)(F)F)CC(=O)N4)CC2)cn1 (stereo not drawn) [Example 67, 3-{1-[2-(Dimethylamino)pyrimidin-5-yl]piperidin-4-yl}-4-hydroxy-4-(trifluoromethyl)-1,4,5,7-tetrahydro-6H-pyrazolo[3,4-b]pyridin-6-one]",330
10,"CN(C)c1ccc(N2CCC(c3n[nH]c4c3C(O)(C(F)(F)F)CC(=O)N4)CC2)cn1 (stereo not drawn) [Example 68, 3-{1-[6-(Dimethylamino)pyridin-3-yl]piperidin-4-yl}-4-hydroxy-4-(trifluoromethyl)-1,4,5,7-tetrahydro-6H-pyrazolo[3,4-b]pyridin-6-one]",760

# The next lines start with the values.
row,EC50 [nM],Structure (SMILES)
1,360,"O=C1CC(O)(C(F)(F)F)c2c(C3CCN(c4ncc(C(F)(F)F)cn4)CC3)n[nH]c2N1 (stereo not drawn) [Example 44, 4-Hydroxy-4-(trifluoromethyl)-3-{1-[5-(trifluoromethyl)pyrimidin-2-yl]piperidin-4-yl}-1,4,5,7-tetrahydro-6H-pyrazolo[3,4-b]pyridin-6-one]"
2,140,"O=C1CC(O)(C(F)(F)F)c2c(C3CCN(c4cc(C(F)(F)F)ncn4)CC3)n[nH]c2N1 (stereo not drawn) [Example 45, 4-Hydroxy-4-(trifluoromethyl)-3-{1-[6-(trifluoromethyl)pyrimidin-4-yl]piperidin-4-yl}-1,4,5,7-tetrahydro-6H-pyrazolo[3,4-b]pyridin-6-one]"
3,12,"O=C1CC(O)(C(F)(F)F)c2c(C3CCN(c4cnc(C(F)(F)F)cn4)CC3)n[nH]c2N1 (stereo not drawn) [Example 46, 4-Hydroxy-4-(trifluoromethyl)-3-{1-[5-(trifluoromethyl)pyrazin-2-yl]piperidin-4-yl}-1,4,5,7-tetrahydro-6H-pyrazolo[3,4-b]pyridin-6-one]"
4,50,"O=C1CC(O)(C(F)(F)F)c2c(C3CCN(c4cncc(C(F)(F)F)c4)CC3)n[nH]c2N1 (stereo not drawn) [Example 53, 4-Hydroxy-4-(trifluoromethyl)-3-{1-[5-(trifluoromethyl)pyridin-3-yl]piperidin-4-yl}-1,4,5,7-tetrahydro-6H-pyrazolo[3,4-b]pyridin-6-one]"
5,70,"O=C1CC(O)(C(F)(F)F)c2c(C3CCN(c4ccc(OC(F)F)nc4)CC3)n[nH]c2N1 (stereo not drawn) [Example 54, 3-{1-[6-(Difluoromethoxy)pyridin-3-yl]piperidin-4-yl}-4-hydroxy-4-(trifluoromethyl)-1,4,5,7-tetrahydro-6H-pyrazolo[3,4-b]pyridin-6-one]"
6,79,"O=C1CC(O)(C(F)(F)F)c2c(C3CCN(c4ccc(OC(F)F)cc4)CC3)n[nH]c2N1 (stereo not drawn) [Example 55, 3-{1-[4-(Difluoromethoxy)phenyl]piperidin-4-yl}-4-hydroxy-4-(trifluoromethyl)-1,4,5,7-tetrahydro-6H-pyrazolo[3,4-b]pyridin-6-one]"
7,20,"O=C1CC(O)(C(F)(F)F)c2c(C3CCN(c4ccc(OC(F)(F)F)cc4)CC3)n[nH]c2N1 (stereo not drawn) [Example 58, 4-Hydroxy-3-{1-[4-(trifluoromethoxy)phenyl]piperidin-4-yl}-4-(trifluoromethyl)-1,4,5,7-tetrahydro-6H-pyrazolo[3,4-b]pyridin-6-one]"
8,260,"CCOc1ccc(N2CCC(c3n[nH]c4c3C(O)(C(F)(F)F)CC(=O)N4)CC2)cc1 (stereo not drawn) [Example 59, 3-[1-(4-Ethoxyphenyl)piperidin-4-yl]-4-hydroxy-4-(trifluoromethyl)-1,4,5,7-tetrahydro-6H-pyrazolo[3,4-b]pyridin-6-one]"
9,21,"N#Cc1cc(N2CCC(c3n[nH]c4c3C(O)(C(F)(F)F)CC(=O)N4)CC2)ccc1OC(F)F (stereo not drawn) [Example 60, 2-(Difluoromethoxy)-5-{4-[4-hydroxy-6-oxo-4-(trifluoromethyl)-4,5,6,7-tetrahydro-1H-pyrazolo[3,4-b]pyridin-3-yl]piperidin-1-yl}benzonitrile]"
10,7,"N#Cc1cc(N2CCC(c3n[nH]c4c3C(O)(C(F)(F)F)CC(=O)N4)CC2)ccc1OC(F)(F)F (stereo not drawn) [Example 62, 5-{4-[4-Hydroxy-6-oxo-4-(trifluoromethyl)-4,5,6,7-tetrahydro-1H-pyrazolo[3,4-b]pyridin-3-yl]piperidin-1-yl}-2-(trifluoromethoxy)benzonitrile]"
11,13,"O=C1CC(O)(C(F)(F)F)c2c(C3CCN(c4cnc(C(F)(F)F)nc4)CC3)n[nH]c2N1 (stereo not drawn) [Example 65, 4-Hydroxy-4-(trifluoromethyl)-3-{1-[2-(trifluoromethyl)pyrimidin-5-yl]piperidin-4-yl}-1,4,5,7-tetrahydro-6H-pyrazolo[3,4-b]pyridin-6-one]"
